Drawing on ChEMBL document CHEMBL5137068, “Discovery of Hexahydrofuro[3,2-b]furans as New Kinase-Selective and Orally Bioavailable JAK3 Inhibitors for the Treatment of Leukemia Harboring a JAK3 Activating Mutant” (J Med Chem, 2022), this text covers Activity, inhibition and IC50 for one molecule.

Active and inactive are the calls of the source. The calls are words filed in the database; no cut-off is given here.

For assay [1], the system named is U-937. The assay can be described thus: Induction of cell cycle arrest in human U-937 cells assessed as accumulation at G2/M phase at 3.7 nM measured after 24 hrs by propidium iodide staining based flow cytometric analysis (reference value: 21.41%). The assay is classed as functional. Background: Flow cytometry measures light scatter and fluorescence of single cells or particles in a stream.

Assay [2] has as its target Tyrosine-protein kinase TXK (Homo sapiens) (UniProt P42681). Put plainly: Inhibition of TXK (unknown origin) at 0.5 uM assessed as competition rate relative to control.
Assay [3] deals with BaF3. Put plainly: cells. To be noted: Mus musculus, BaF3, 72 h.
In assay [4] the target is NUAK family SNF1-like kinase 1 (Homo sapiens) (UniProt O60285). Put plainly: Inhibition of human ARK5 at 0.5 uM assessed as competition rate relative to control.
Sequence of NUAK family SNF1-like kinase 1 (Homo sapiens) (O60285 whole entry): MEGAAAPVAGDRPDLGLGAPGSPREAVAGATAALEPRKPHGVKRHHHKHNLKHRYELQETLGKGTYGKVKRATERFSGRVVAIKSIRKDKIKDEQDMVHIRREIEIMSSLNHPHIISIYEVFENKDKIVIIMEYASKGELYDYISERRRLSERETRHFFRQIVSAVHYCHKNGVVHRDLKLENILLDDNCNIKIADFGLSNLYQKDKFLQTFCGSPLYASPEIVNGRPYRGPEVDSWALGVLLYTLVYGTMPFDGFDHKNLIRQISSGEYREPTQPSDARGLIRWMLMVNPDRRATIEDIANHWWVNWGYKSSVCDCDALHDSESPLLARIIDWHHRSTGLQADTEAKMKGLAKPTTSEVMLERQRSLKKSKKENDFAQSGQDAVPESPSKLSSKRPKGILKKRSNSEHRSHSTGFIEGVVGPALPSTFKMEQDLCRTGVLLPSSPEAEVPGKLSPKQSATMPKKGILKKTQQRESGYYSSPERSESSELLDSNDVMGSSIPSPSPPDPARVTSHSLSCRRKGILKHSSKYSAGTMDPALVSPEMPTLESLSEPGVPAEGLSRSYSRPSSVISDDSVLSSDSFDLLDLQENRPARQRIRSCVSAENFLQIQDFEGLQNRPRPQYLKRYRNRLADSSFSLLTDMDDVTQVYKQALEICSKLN
Assay [5] has as its target Cyclin-Y/Cyclin-dependent kinase 16 (Homo sapiens, UniProt Q00536). The assay can be described thus: Inhibition of human CDK16/cyclin-Y protein-protein complex. The format is protein-complex assay.
For assay [6], the system named is BaF3. The assay can be described thus: cells. To be noted: Mus musculus, BaF3, 72 h. The source holds these as a separate data set.
Assay [7] deals with U-937. The assay can be described thus: Induction of cell cycle arrest in human U-937 cells assessed as downregulation of CDK2 at 0 to 300 nM measured after 24 hrs by western blot analysis. The format is functional, cell-based. To be noted: dose 0-300 nM.
Assay [8] deals with U-937. Put plainly: Induction of cell cycle arrest in human U-937 cells assessed as downregulation of CDK6 at 0 to 300 nM measured after 24 hrs by western blot analysis. The note with it: dose 0-300 nM. The assay is classed as functional, cell-based.
In assay [9] the target is Receptor tyrosine-protein kinase erbB-2 (Homo sapiens) (UniProt P04626). The assay can be described thus: Inhibition of HER2 (unknown origin) at 0.5 uM assessed as competition rate relative to control.
Sequence of Receptor tyrosine-protein kinase erbB-2 (Homo sapiens) (P04626 whole entry): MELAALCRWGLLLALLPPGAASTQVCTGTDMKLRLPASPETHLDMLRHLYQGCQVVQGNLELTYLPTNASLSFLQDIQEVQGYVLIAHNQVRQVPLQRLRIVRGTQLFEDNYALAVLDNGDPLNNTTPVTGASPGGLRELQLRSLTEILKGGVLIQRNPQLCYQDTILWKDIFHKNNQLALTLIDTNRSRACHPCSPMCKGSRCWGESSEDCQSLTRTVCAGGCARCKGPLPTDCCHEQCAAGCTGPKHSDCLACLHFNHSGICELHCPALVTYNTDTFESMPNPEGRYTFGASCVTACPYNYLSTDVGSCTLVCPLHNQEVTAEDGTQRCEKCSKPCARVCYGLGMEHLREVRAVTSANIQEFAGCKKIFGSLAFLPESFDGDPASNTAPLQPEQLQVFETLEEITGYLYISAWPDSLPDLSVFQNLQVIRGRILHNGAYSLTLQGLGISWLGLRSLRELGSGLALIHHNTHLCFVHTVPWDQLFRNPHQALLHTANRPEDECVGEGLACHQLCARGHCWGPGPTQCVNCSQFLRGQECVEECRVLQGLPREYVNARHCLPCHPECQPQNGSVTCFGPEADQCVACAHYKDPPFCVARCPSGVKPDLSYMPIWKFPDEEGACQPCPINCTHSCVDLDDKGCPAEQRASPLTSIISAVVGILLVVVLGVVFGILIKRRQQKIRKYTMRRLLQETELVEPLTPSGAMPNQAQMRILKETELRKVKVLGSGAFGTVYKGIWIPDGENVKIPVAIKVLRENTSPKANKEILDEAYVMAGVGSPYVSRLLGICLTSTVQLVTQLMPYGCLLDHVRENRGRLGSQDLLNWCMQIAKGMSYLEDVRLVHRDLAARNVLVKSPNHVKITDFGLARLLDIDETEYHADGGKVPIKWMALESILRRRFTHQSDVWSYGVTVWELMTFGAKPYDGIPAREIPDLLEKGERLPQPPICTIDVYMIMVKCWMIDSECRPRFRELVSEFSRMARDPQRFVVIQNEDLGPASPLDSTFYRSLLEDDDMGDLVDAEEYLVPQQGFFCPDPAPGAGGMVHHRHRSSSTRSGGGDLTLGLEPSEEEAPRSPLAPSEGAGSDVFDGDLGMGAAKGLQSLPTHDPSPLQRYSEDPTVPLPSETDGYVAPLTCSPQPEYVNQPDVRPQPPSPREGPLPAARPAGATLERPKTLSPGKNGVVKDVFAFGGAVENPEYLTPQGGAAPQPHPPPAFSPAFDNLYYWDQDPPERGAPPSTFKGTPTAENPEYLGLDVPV
The target in assay [10] is Tyrosine-protein kinase Blk (Homo sapiens) (UniProt P51451). Put plainly: Inhibition of BLK (unknown origin) at 0.5 uM assessed as competition rate relative to control.
Sequence of Tyrosine-protein kinase Blk (Homo sapiens) (P51451 2-505 limits assumed): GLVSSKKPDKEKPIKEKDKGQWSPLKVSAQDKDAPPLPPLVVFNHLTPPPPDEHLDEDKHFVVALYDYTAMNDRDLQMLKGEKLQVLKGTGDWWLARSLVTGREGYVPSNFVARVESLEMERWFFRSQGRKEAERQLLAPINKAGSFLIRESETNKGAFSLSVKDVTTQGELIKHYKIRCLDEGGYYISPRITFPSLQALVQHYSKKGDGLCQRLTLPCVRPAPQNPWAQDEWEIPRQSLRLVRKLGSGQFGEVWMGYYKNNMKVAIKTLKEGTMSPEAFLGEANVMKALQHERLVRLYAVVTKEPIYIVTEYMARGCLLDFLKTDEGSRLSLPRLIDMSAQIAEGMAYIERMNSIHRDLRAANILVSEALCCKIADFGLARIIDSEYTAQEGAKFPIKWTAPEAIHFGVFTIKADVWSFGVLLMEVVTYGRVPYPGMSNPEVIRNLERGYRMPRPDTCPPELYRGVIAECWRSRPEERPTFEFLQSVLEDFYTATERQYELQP
Assay [11] has as its target Tyrosine-protein kinase JAK2 (Homo sapiens, UniProt O60674). The assay can be described thus: Inhibition of human JAK2 at 0.5 uM relative to control.
The subject of assay [12] is U-937. Put plainly: Induction of cell cycle arrest in human U-937 cells assessed as downregulation of Cyclic E1 at 0 to 300 nM measured after 24 hrs by western blot analysis. The assay is classed as functional, cell-based. To be noted: dose 0-300 nM. For orientation: Immunoblotting shows a protein as a band on a membrane.
Assay [13] deals with T1, Signal transducer and activator of transcription 5A (Homo sapiens) (UniProt P42229).
T1 sequence (whole entry): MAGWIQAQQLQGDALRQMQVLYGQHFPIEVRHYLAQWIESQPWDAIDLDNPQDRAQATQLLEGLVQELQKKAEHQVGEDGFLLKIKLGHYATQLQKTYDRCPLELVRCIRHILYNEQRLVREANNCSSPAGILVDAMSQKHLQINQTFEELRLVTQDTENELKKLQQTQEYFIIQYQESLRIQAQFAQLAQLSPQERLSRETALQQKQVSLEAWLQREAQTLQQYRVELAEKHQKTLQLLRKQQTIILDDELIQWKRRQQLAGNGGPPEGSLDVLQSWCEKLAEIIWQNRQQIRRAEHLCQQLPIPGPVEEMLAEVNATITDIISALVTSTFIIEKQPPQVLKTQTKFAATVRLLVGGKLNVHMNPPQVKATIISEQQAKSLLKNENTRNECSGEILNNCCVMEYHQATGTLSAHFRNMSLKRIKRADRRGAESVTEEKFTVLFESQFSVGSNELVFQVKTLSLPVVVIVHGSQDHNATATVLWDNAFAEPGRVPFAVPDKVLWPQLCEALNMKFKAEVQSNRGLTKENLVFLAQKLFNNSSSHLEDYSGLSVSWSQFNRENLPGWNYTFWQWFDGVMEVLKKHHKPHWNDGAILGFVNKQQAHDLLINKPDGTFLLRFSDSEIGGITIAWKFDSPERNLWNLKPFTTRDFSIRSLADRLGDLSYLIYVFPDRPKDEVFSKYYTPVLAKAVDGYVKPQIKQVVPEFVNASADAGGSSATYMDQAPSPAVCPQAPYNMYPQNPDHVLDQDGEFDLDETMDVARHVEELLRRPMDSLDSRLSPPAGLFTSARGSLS
The assay can be described thus: Inhibition of STAT5 activation in human U-937 cells assessed as decrease in P-STAT5 at 100 uM by Western blot analysis. The note with it: time 0-24 hrs, TDE = time-dependent effect. The assay is classed as cell-based.

Sequence of Cyclin-Y/Cyclin-dependent kinase 16 (Q00536 whole entry): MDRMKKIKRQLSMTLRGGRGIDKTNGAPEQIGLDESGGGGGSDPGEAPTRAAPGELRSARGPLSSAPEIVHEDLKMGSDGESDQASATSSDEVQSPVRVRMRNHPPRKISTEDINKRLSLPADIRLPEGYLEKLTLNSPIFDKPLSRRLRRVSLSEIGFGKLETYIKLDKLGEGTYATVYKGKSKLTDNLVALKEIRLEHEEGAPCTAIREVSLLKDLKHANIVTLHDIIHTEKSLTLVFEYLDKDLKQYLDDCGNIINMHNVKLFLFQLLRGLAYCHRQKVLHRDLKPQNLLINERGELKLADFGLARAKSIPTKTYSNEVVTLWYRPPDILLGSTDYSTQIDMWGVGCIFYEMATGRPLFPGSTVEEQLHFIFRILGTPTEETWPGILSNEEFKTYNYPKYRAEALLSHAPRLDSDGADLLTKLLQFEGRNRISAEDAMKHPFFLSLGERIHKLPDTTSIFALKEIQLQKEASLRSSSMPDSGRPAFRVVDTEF
Sequence of Cyclin-Y/Cyclin-dependent kinase 16 (Q8ND76 whole entry, further chain): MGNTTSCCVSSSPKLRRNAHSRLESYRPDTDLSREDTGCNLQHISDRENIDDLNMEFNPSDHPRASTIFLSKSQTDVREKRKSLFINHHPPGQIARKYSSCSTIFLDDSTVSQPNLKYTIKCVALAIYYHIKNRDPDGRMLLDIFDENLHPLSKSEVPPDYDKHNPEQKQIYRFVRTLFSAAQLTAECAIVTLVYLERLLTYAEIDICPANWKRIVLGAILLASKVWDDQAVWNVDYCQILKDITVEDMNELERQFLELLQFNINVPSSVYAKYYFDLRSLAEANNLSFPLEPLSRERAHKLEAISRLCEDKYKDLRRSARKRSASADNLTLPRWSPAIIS
Sequence of Tyrosine-protein kinase JAK2 (O60674 whole entry): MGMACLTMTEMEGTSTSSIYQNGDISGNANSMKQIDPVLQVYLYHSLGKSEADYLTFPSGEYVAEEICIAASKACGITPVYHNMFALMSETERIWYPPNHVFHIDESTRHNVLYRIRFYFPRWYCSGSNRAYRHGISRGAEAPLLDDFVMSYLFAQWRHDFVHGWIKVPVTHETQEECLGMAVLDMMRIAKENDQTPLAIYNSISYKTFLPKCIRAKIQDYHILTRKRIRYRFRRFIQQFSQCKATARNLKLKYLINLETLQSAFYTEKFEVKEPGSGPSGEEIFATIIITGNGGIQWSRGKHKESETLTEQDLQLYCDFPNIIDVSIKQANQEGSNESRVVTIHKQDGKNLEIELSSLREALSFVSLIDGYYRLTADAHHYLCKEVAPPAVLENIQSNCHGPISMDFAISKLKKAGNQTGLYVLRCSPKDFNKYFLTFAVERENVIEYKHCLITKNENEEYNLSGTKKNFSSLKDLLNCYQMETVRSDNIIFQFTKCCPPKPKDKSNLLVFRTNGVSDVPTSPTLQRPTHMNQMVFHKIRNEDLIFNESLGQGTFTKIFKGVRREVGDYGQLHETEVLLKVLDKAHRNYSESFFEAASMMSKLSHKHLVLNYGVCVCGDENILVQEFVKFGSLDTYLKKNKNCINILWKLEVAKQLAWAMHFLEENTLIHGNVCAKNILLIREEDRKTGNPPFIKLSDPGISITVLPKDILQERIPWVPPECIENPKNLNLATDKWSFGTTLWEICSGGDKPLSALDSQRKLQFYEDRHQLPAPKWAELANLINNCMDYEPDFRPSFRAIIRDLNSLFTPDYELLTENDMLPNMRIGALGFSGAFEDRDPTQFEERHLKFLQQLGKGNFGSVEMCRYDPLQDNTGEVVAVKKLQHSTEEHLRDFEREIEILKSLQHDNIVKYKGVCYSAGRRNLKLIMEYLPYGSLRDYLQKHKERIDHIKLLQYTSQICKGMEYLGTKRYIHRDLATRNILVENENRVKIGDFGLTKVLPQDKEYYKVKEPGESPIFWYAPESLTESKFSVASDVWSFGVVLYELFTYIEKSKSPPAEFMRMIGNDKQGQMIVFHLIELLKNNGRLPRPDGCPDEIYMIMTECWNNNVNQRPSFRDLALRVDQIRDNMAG
Sequence of Tyrosine-protein kinase TXK (Homo sapiens) (P42681 whole entry): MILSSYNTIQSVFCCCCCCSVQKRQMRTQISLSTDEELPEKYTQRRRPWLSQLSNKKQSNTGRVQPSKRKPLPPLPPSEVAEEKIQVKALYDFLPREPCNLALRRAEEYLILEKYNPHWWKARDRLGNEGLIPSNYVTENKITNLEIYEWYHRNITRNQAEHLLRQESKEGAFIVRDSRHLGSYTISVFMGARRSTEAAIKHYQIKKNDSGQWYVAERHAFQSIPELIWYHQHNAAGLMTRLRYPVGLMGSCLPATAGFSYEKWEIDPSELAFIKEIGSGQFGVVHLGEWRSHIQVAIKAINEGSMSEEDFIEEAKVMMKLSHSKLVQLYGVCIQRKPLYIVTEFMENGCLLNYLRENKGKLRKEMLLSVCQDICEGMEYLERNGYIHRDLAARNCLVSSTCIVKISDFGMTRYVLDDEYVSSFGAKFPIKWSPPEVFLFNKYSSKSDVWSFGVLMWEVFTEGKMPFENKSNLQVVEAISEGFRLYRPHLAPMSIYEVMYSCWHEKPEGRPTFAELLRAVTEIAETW

One may read the inhibition as the change of the read-out against control, counted positive when it falls. By IC50 is commonly meant the concentration needed to halve the response being measured. A higher IC50 goes with a need for much substance. Regarding `C=CC(=O)Nc1cc(Nc2ncc(Cl)c(O[C@@H]3CO[C@H]4[C@@H]3OC[C@H]4OC)n2)ccc1N(C)CCN(C)C`, the Activity in assay [1] turned out to be 23.11%. Besides, the inhibition in assay [2] was 40%; in assay [4], 70%; in assay [9] it was 40%; in assay [10] it was 40%; in assay [11], 98%; in assay [13], “Tde”. In addition, the results for the IC50 in assay [3], in assay [5] and in assay [6] were 134 nM, 135 nM and 178 nM, respectively. The result in [7], in assay [8] and in [12] was Active.
